These compounds were tested on influenza virus (influenza A/Kitakyusyu/159/93(H3N2)).
Format: biochemical

First: [Cu+].[I-] [COPPER(I) IODIDE, copper(I) iodide]
Second: N#C[S-].[Cu+] [COPPER(I) THIOCYANATE, copper(I) thiocyanate]
The HA titer of the first is higher: 16 for the first, 2 for the second.

Going from `[I][Pd][I]` [PALLADIUM(II) IODIDE, palladium(II) iodide] to silver(I) iodide, the HA titer rises from 4 to 64.

Compound `[I-].[I-].[Pt+2]` [PLATINUM(II) IODIDE, platinum(II) iodide] has an HA titer of less than 2.

Source: patent US10744351B2 (priority 2009, dated 2020)
